In patent US11046691B1 (IDEAYA BIOSCIENCES, INC., priority 2018, dated 2021):

target: T1, hMAT2A (Homo sapiens (Human), UniProt P31153); assay: Malachite Green Assay (MAT2A enzyme inhibition); assay type: biochemical; details: hMAT2A 50 nM, substrates 500 uM each, 1 hour
Description: The ability of the compound of present disclosure to inhibit MAT2A enzyme was determined using the Malachite Green or Phosphate Sensor Fluorescence Assay described below.
L-methionine Substrate: Alfa Aesar catalog #J61904
ATP Substrate: Alfa Aesar cat #J60336
Malachite Green Detection Reagent: Millipore Sigma catalog #MAK307-1KT
Assay buffer: 50 mM Tris, pH 7.5/50 mM KCl/10 mM MgCl2/0.01% Brij-35/1 mM DTT/0.1% BGG
The plate was centrifuged at 1000 rpm for 1 minute and then incubated at room temperature for 1 hour. 5 μL of malachite green detection reagent was added to all the test wells and the plate was centrifuged at 1000 rpm for 1 minute and then incubated at room temperature for 30 minutes. The plate was read for absorbance at 620 nm on a plate reader (e.g., Infinite M1000).

T1 sequence (P31153 whole entry): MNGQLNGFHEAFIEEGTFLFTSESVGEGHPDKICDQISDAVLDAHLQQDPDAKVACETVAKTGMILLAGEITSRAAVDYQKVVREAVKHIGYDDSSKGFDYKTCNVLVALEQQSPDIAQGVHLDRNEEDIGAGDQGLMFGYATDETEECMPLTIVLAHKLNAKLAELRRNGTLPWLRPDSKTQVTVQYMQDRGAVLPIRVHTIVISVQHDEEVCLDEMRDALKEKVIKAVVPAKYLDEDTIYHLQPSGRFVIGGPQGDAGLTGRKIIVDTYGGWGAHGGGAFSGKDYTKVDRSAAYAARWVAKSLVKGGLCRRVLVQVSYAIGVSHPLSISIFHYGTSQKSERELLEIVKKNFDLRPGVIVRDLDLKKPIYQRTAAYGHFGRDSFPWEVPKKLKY

Q: With O=c1nc(N2CCCC2)c2ccc(Cl)cc2n1-c1ccccc1 [Example 67, 7-chloro-1-phenyl-4-(pyrrolidin-1-yl)-quinazolin-2(1H)-one] as the molecule, how does the IC50 read?
A: Its IC50 is less than 200 nM.

Q: How did the IC50 turn out when O=c1nc(N2CC[C@H](O)C2)c2ccc(Cl)cc2n1-c1ccccc1 [Example 26, (S)-7-chloro-4-(3-hydroxypyrrolidin-1-yl)-1-phenylquinazolin-2(1H)-one] was run?
A: The IC50 was less than 200 nM.

Q: Which IC50 does the source give for Nc1nc(=O)n(-c2ccccc2)c2cc(Cl)ccc12 [Example 59, 4-amino-7-chloro-1-phenylquinazolin-2(1H)-one] here?
A: The IC50 was less than 200 nM.

Q: For CN(C)c1nc(=O)n(-c2cc(O)cc(F)c2)c2cc(Cl)ccc12 [Example 37, 4-(dimethylamino)-7-chloro-1-(5-fluoro-3-hydroxyphenyl)hydro-quinazolin-2-one], which IC50 is on record?
A: The IC50 was less than 200 nM.

Q: CN(C)c1nc(=O)n(-c2cccc(NS(C)(=O)=O)c2)c2cc(Cl)ccc12 [Example 52, N-(3-(7-chloro-4-(dimethylamino)-2-oxoquinazolin-1 (2H)-yl)phenyl)-methanesulfonamide] was tested. Which IC50 did it give?
A: Its IC50 is less than 200 nM.

Q: Which IC50 does the source give for CN(C)CCN(C)c1nc(=O)n(-c2ccccc2)c2cc(Cl)ccc12 [Example 63, 7-chloro-4-((2-(dimethylamino)ethyl)-(methyl)-amino)-1-phenylquinazolin-2(1H)-one] here?
A: Its IC50 is 1000 to 10000 nM.

Q: How did the IC50 turn out when CNc1nc(=O)n(-c2ccncc2)c2cc(Cl)ccc12 was run?
A: The IC50 was 1000 to 10000 nM.

Q: CN(C)c1nc(=O)n(-c2cccc(O)c2)c2cc(Cl)ccc12 [Example 54] was tested. Which IC50 did it give?
A: Its IC50 is less than 200 nM.

Q: How did the IC50 turn out when CNc1nc(=O)n(-c2ccccc2)c2cc(Cl)c(F)cc12 was run?
A: The IC50 was less than 200 nM.

target: T1, hMAT2A; assay: Phosphate Sensor Fluorescence Assay (MAT2A enzyme inhibition); assay type: biochemical; details: L-methionine 500 uM, ATP 500 uM, class symbols
Method in brief: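 Recombinant MAT2A preincubated 15 min at room temperature with compound, then reacted 1 h at room temperature with 500 uM L-methionine and 500 uM ATP in Tris pH 7.5 buffer containing PNP/7-MEG.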

Q: With CNc1nc(=O)n(-c2ccccc2Cl)c2cc(C3CC3)c(Br)cc12 [Example 417, 6-bromo-1-(2-chlorophenyl)-7-cyclo-propyl-4-(methylamino)hydro-quinazolin-2-one] as the molecule, how does the IC50 read?
A: Its IC50 is less than 200 nM.

Q: With CNc1nc(=O)n(-c2ccccc2)c2cc(C(F)(F)F)c(Br)cc12 [Example 303, 6-bromo-4-(methylamino)-1-phenyl-7-(trifluoromethyl)quinazolin-2(1H)-one] as the molecule, how does the IC50 read?
A: Its IC50 is less than 200 nM.

Q: CNc1nc(=O)n(-c2ncccc2Cl)c2cc(Cl)ccc12 [Example 370, 7-chloro-1-(3-chloro(2-pyridyl))-4-(methylamino)hydroquinazolin-2-one] was tested. Which IC50 did it give?
A: Its IC50 is less than 200 nM.

Q: With CNc1nc(=O)n(-c2ccc(C)nc2)c2nc(C(F)(F)F)ccc12 [Example 314] as the molecule, how does the IC50 read?
A: Its IC50 is less than 200 nM.

Q: For O=c1nc(N[C@@H]2C[C@H]2F)c2ccc(OC(F)(F)F)cc2n1-c1ccccc1Cl (atropisomer, axis not shown) [Example 404, 4-[((1R,2R)-2-fluorocyclopropyl)-amino]-1-(2-chlorophenyl)-7-(trifluoromethoxy)hydroquinazolin-2-one], which IC50 is on record?
A: The IC50 was less than 200 nM.

Q: CNc1nc(=O)n(-c2ccccc2Cl)c2cc(C(F)(F)F)ccc12 [Example 102, 1-(2-chlorophenyl)-4-(methylamino)-7-(trifluoromethyl)hydroquinazolin-2-one] was tested. Which IC50 did it give?
A: The IC50 was less than 200 nM.

Q: How did the IC50 turn out when CN(C)c1nc(=O)n(-c2ccccc2Cl)c2nc(C(F)(F)F)ccc12 [Example 244, 1-(2-chlorophenyl)-4-(dimethylamino)-7-(trifluoromethyl)pyrido[2,3-d]-pyrimidin-2(1H)-one] was run?
A: The IC50 was less than 200 nM.

Q: For O=c1nc(N2CCC2)c2ccc(N3CCC3)cc2n1-c1ccccc1 [Example 94, 4,7-di(azetidin-1-yl)-1-phenylhydro-quinazolin-2-one], which IC50 is on record?
A: Its IC50 is 500 to 1000 nM.

Q: Which IC50 does the source give for O=c1nc(NC23CC(O)(C2)C3)c2ccc(C(F)(F)F)nc2n1-c1ccccc1Cl [Example 297, 1-(2-chlorophenyl)-4-[(3-hydroxy-bicyclo[1.1.1]pentyl)amino]-7-(trifluoro-methyl)-pyrido[2,3-d]pyrimidin-2(1H)-one] here?
A: The IC50 was less than 200 nM.

Q: With O=c1nc(N2CC[C@@H](O)C2)c2ccc(Cl)cc2n1-c1ccccc1Br [Example 87, 4-((3R)-3-hydroxypyrrolidin-1-yl)-1-(2-bromophenyl)-7-chlorohydroquinazolin-2-one] as the molecule, how does the IC50 read?
A: Its IC50 is less than 200 nM.

Q: How did the IC50 turn out when CC1(C)CCN(c2nc(=O)n(-c3ccccc3)c3cc(Cl)ccc23)C1 [Example 238, 4-(3,3-dimethylpyrrolidin-1-yl)-7-chloro-1-phenylhydroquinazolin-2-one] was run?
A: Its IC50 is less than 200 nM.

Q: Which IC50 does the source give for CNc1nc(=O)n(-c2ccncc2)c2nc(C(F)(F)F)ccc12 [Example 313] here?
A: Its IC50 is 500 to 1000 nM.

Q: How did the IC50 turn out when O=c1[nH]c(=O)n(-c2cccc3ncsc23)c2nc(C(F)(F)F)ccc12 [Example 363, 1-benzothiazol-7-yl-7-(trifluoromethyl)-pyrido[2,3-d]pyrimidine-2,4(1H,3H)-dione] was run?
A: The IC50 was less than 200 nM.

Q: Which IC50 does the source give for O=c1nc(N2CC[C@@H](O)C2)c2ccc(Cl)cc2n1-c1ccccc1 [Example 239, 4-((3R)-3-hydroxypyrrolidinyl)-7-chloro-1-phenylhydroquinazolin-2-one] here?
A: The IC50 was less than 200 nM.

Q: How did the IC50 turn out when CS(=O)(=O)CCNc1nc(=O)n(-c2ccccc2Cl)c2cc(C3CC3)c(C#N)cc12 [Example 403, 1-(2-chlorophenyl)-7-cyclopropyl-4-((2-(methylsulfonyl)ethyl)amino)-2-oxo-1,2-dihydroquinazoline-6-carbonitrile] was run?
A: Its IC50 is 1000 to 10000 nM.

Q: With O=c1nc(N2CC(O)C2)c2ccc(C3CC3)cc2n1-c1ccccc1 [Example 372, 7-cyclopropyl-4-(3-hydroxyazetidin-1-yl)-1-phenylhydroquinazolin-2-one] as the molecule, how does the IC50 read?
A: Its IC50 is less than 200 nM.

Q: O=c1nc(NC2COC2)c2ccc(C(F)(F)F)nc2n1-c1ccccc1Cl [Example 274, 1-(2-chlorophenyl)-4-(oxetan-3-yl-amino)-7-(trifluoromethyl)pyrido[2,3-d]pyrimidin-2(1H)-one] was tested. Which IC50 did it give?
A: The IC50 was less than 200 nM.

Q: With CNc1nc(=O)n(-c2ccccc2)c2cc(Cl)cc(OCCN)c12 [Example 402, 5-(2-aminoethoxy)-7-chloro-4-(methyl-amino)-1-phenylhydroquinazolin-2-one] as the molecule, how does the IC50 read?
A: The IC50 was 500 to 1000 nM.

Q: Cn1ccc(CNc2nc(=O)n(-c3ccccc3)c3cc(Cl)ccc23)n1 [Example 233, 7-chloro-4-1{[(1-methylpyrazol-3-yl)-methyl]amino}-1-phenylhydro-quinazolin-2-one] was tested. Which IC50 did it give?
A: The IC50 was less than 200 nM.

Q: For CC1CCN1c1nc(=O)n(-c2ccccc2)c2cc(Cl)ccc12 (stereo not drawn) [Example 223, 7-chloro-4-(2-methylazetidin-1-yl)-1-phenylhydroquinazolin-2-one], which IC50 is on record?
A: Its IC50 is less than 200 nM.

Q: CNc1nc(=O)n(-c2ccncc2Cl)c2nc(C(F)(F)F)ccc12 [Example 312] was tested. Which IC50 did it give?
A: Its IC50 is less than 200 nM.

Q: Which IC50 does the source give for Cc1ccccc1-n1c(=O)nc(NCC(F)(F)F)c2ccc(C(F)(F)F)cc21 [Example 126, 1-(2-methylphenyl)-4-[(2,2,2-trifluoro-ethyl)amino]-7-(trifluoromethyl)hydro-quinazolin-2-one] here?
A: The IC50 was less than 200 nM.

Q: O=C(O)c1cccc(-n2c(=O)[nH]c(=O)c3ccc(Cl)cc32)c1 [Example 156, 3-(7-chloro-4-hydroxy-2-oxohydro-quinazolinyl)benzoic acid] was tested. Which IC50 did it give?
A: The IC50 was 1000 to 10000 nM.

Q: With Nc1nc(=O)n(-c2ccccc2Br)c2cc(Cl)ccc12 [Example 149, 4-amino-1-(2-bromophenyl)-7-chloro-hydroquinazolin-2-one] as the molecule, how does the IC50 read?
A: The IC50 was less than 200 nM.

Q: O=c1nc(Nc2ccncc2)c2ccc(C(F)(F)F)nc2n1-c1ccccc1Cl [Example 421, 1-(2-chlorophenyl)-4-(pyridin-4-yl-amino)-7-(trifluoromethyl)pyrido[2,3-d]-pyrimidin-2(1H)-one] was tested. Which IC50 did it give?
A: The IC50 was less than 200 nM.

Q: Cc1ccccc1-n1c(=O)nc(N2CC[C@@H](O)C2)c2ccc(C(F)(F)F)nc21 [Example 183, (R)-4-(3-hydroxypyrrolidin-1-yl)-1-(o-tolyl)-7-(trifluoromethyl)pyrido[2,3-d]-pyrimidin-2(1H)-one] was tested. Which IC50 did it give?
A: The IC50 was less than 200 nM.

Q: O=c1nc(NCC2(CO)CC2)c2ccc(C(F)(F)F)nc2n1-c1ccccc1Cl [Example 265] was tested. Which IC50 did it give?
A: The IC50 was less than 200 nM.

Q: How did the IC50 turn out when CNc1nc(=O)n(-c2ncccc2C)c2cc(Cl)ccc12 [Example 371] was run?
A: The IC50 was less than 200 nM.

same assay, conditions: L-methionine 500 uM, ATP 500 uM, numeric bound

Q: How did the IC50 turn out when O=c1ncc2ccc(Cl)cc2n1-c1ccccc1 [Example 191, 7-chloro-1-phenylhydroquinazolin-2-one] was run?
A: Its IC50 is greater than 10000 nM.

Q: For CC(C)(C)OC(=O)N1CC=C(c2cc(Cl)cc3c2c(O)nc(=O)n3-c2ccccc2)C1 [Example 290, tert-butyl 3-(7-chloro-4-hydroxy-2-oxo-1-phenyl-1,2-dihydroquinazolin-5-yl)-2,5-dihydro-1H-pyrrole-1-carboxylate], which IC50 is on record?
A: Its IC50 is greater than 10000 nM.

Q: With Cc1cnc2c(=O)[nH]c(=O)n(-c3ccccc3)c2c1 [Example 193, 7-methyl-1-phenylpyrido[3,2-d]-pyrimidine-2,4(1H,3H)-dione] as the molecule, how does the IC50 read?
A: Its IC50 is greater than 10000 nM.

Q: With CNc1nc(=O)n(-c2ccccc2Cl)c2c(Cl)c(C(F)(F)F)ccc12 [Example 342, 8-chloro-1-(2-chlorophenyl)-4-(methylamino)-7-(trifluoromethyl)-hydroquinazolin-2-one] as the molecule, how does the IC50 read?
A: The IC50 was greater than 10000 nM.

Q: How did the IC50 turn out when CN(Cc1ccccn1)c1nc(=O)n(-c2ccccc2)c2cc(Cl)ccc12 [Example 236, 7-chloro-4-[methyl(pyridin-2-ylmethyl)-amino]-1-phenylhydroquinazolin-2-one] was run?
A: The IC50 was greater than 10000 nM.

Q: COc1ccc(F)c(-n2c(=O)[nH]c(=O)c3ccc(Cl)cc32)c1 [Example 311, 7-chloro-1-(2-fluoro-5-methoxyphenyl)-quinazoline-2,4(1H,3H)-dione] was tested. Which IC50 did it give?
A: The IC50 was greater than 10000 nM.

Q: Which IC50 does the source give for CNc1nc(=O)n(-c2ccccc2)c2cc(Cl)cc(OC(C)C)c12 [Example 349, 7-chloro-4-(methylamino)-5-(methyl-ethoxy)-1-phenylhydroquinazolin-2-one] here?
A: The IC50 was greater than 10000 nM.

Q: CNc1nc(=O)n(-c2ccccc2)c2cc(C)cnc12 [Example 192, 7-methyl-4-(methylamino)-1-phenyl-pyrido[3,2-d]pyrimidin-2(1H)-one] was tested. Which IC50 did it give?
A: Its IC50 is greater than 10000 nM.
